Measurements as given in patent publication US8003783B2, “17B-hydroxysteroid dehydrogenase inhibitors” (Sterix Limited, priority 2004, dated 2011).
Where two headings read alike, the source gives them in different places.

Columns and labels:
17β-HSD1 = target: T1, 17β-HSD1 (Homo sapiens, UniProt P14061); assay: 17β-HSD Type I activity in T-47D cells (E1→E2); format: cell-based; settings: for inhibition at 10 µM: T47D
T1 construct: was measured in intact cell monolayers of T47D and MDA-MB-231 breast cancer cells respectively; endogenous in cells; host or cells: T-47D human breast cancer cells
T1 sequence (P14061 1-328): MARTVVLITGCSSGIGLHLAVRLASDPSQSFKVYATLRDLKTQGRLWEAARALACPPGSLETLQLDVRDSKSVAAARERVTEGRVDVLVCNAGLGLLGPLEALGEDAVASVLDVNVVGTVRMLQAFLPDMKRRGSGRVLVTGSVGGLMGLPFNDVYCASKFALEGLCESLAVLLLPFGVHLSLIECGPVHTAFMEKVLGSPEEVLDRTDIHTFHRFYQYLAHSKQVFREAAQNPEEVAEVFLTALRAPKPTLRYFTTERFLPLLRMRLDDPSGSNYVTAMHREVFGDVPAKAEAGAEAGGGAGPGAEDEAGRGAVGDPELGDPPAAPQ

17β-HSD2 = target: T2, 17β-HSD2 (Homo sapiens, UniProt P37059); assay: 17β-HSD Type II activity in MDA-MB-231 cells (E2→E1); format: cell-based
T2 construct: was measured in intact cell monolayers of T47D and MDA-MB-231 breast cancer cells respectively; endogenous in cells; host or cells: MDA-MB-231 human breast cancer cells
T2 sequence (P37059 1-387): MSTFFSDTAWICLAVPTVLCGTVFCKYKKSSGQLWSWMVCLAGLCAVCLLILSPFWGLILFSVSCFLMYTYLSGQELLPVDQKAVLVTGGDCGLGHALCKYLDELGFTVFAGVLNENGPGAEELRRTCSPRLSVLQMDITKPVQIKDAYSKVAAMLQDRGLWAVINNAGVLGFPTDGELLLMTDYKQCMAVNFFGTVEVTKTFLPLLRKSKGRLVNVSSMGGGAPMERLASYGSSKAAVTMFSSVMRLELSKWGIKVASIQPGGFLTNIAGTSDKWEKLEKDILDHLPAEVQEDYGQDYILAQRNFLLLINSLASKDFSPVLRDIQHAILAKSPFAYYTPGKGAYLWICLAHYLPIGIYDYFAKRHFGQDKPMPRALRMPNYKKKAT

[1] = 10 μM, T-47D cells, E1→E2, read-out: % inhibition of 17β-HSD1 @ 10 μM
[2] = 10 μM, MDA-MB-231 cells, E2→E1, read-out: % inhibition of 17β-HSD2 @ 10 μM
[3] = T-47D cells, E1→E2, read-out: IC50 (17β-HSD1)
[4] = read-out: % inhibition of 17β-HSD1 @ 10 μM, 10 μM, T-47D cells, E1→E2
[5] = MDA-MB-231, read-out: % inhibition of 17β-HSD2 @ 10 μM

Row | SMILES | inhibition at 10 µM (17β-HSD1; [1]) [%] | inhibition at 10 µM (17β-HSD2; [2]) [%] | IC50 (17β-HSD1; [3]) [nM] | inhibition at 10 µM (17β-HSD1; [4]) [%] | inhibition at 10 µM (17β-HSD2; [5]) [%] | further results
1 | C[C@]12CCC3c4ccc(O)cc4CCC3C1Cc1c2n[nH]c1C(=O)O (stereo partly shown) [compound 783] | 32 | -6 |  |  |  | 
2 | C[C@]12CCC3c4ccc(O)cc4C(=O)CC3C1C/C(=C/O)C2=O (stereo partly shown) [compound 784] | 97 | -7 | 700 |  |  | 
3 | Cn1cc2c(n1)[C@@]1(C)CCC3c4ccc(O)cc4CCC3C1C2 (stereo partly shown) [compound 785] |  |  | 2750 | 94 | 24 | 
4 | Cn1ncc2c1[C@@]1(C)CCC3c4ccc(O)cc4CCC3C1C2 (stereo partly shown) [compound 786] |  |  |  | 43 | 32 | 
5 | C[C@]12CCC3c4ccc(O)cc4CCC3C1CC(C(=O)NCc1cccnc1)[C@@H]2O (stereo partly shown) [compound 798] | 91 | -12 |  |  |  | IC50 (17β-HSD1): 510 nM
6 | CN1CCN(C(=O)C2CC3C4CCc5cc(O)ccc5C4CC[C@]3(C)[C@H]2O)CC1 (stereo partly shown) [compound 799] | 74 | -16 |  |  |  | 
7 | CCN(C)C(=O)C1CC2C3CCc4cc(O)ccc4C3CC[C@]2(C)[C@H]1O (stereo partly shown) [compound 800] | 79 | -6 |  |  |  | 
8 | CC(C)NC(=O)C1CC2C3CCc4cc(O)ccc4C3CC[C@]2(C)[C@H]1O (stereo partly shown) [compound 801] |  |  |  | 70 | -15 | 
9 | Cn1cccc1CNC(=O)C1CC2C3CCc4cc(O)ccc4C3CC[C@]2(C)[C@H]1O (stereo partly shown) [compound 802] | 86 | -7 |  |  |  | 
10 | Cc1cnc(CNC(=O)C2CC3C4CCc5cc(O)ccc5C4CC[C@]3(C)[C@H]2O)cn1 (stereo partly shown) [compound 803] | 85 | -18 |  |  |  | 
11 | C[C@]12CCC3c4ccc(O)cc4CCC3C1Cc1c2n[nH]c1CO (stereo partly shown) [compound 804] | 94 | -1 | 950 |  |  | 
12 | COC(=O)Cn1cc2c(n1)[C@@]1(C)CCC3c4ccc(O)cc4CCC3C1C2 (stereo partly shown) [compound 806] | 95 | 19 | 920 |  |  | 
13 | COC(=O)Cn1ncc2c1[C@@]1(C)CCC3c4ccc(O)cc4CCC3C1C2 (stereo partly shown) [compound 807] | 79 | 30 |  |  |  | 
14 | COCCn1cc2c(n1)[C@@]1(C)CCC3c4ccc(O)cc4CCC3C1C2 (stereo partly shown) [compound 808] | 95 | 48 | 530 |  |  | 
15 | COCCn1ncc2c1[C@@]1(C)CCC3c4ccc(O)cc4CCC3C1C2 (stereo partly shown) [compound 809] | 83 | 55 |  |  |  | 
16 | CC(C)Cn1cc2c(n1)[C@@]1(C)CCC3c4ccc(O)cc4CCC3C1C2 (stereo partly shown) [compound 812] |  |  |  | 77 | 61 | 
17 | CC(C)Cn1ncc2c1[C@@]1(C)CCC3c4ccc(O)cc4CCC3C1C2 (stereo partly shown) [compound 813] |  |  |  | 70 | 44 | 
18 | C[C@]12CCC3c4ccc(O)cc4CCC3C1Cc1c2n[nH]c1O (stereo partly shown) [compound 820, 6a-Methyl-4b,5,6,6a,8,10,10a,10b,11,12-decahydro-7,8-diaza-pentaleno[2,1-a]phenanthrene-2,9-diol] | 86 | 7 |  |  |  | 
19 | CC(NC(=O)C1CC2C3CCc4cc(O)ccc4C3CC[C@]2(C)[C@H]1O)c1ccccc1 (stereo partly shown) [compound 844] | 90 | 12 |  |  |  | IC50 (17β-HSD1): 810 nM
20 | C[C@]12CCC3c4ccc(O)cc4CCC3C1CC(C(=O)NCc1ccncc1)[C@@H]2O (stereo partly shown) [compound 845] | 87 | 2.5 |  |  |  | 

Row | SMILES | inhibition at 10 µM (17β-HSD1; [1]) [%] | inhibition at 10 µM (17β-HSD2; [2]) [%] | IC50 (17β-HSD1; [3]) [nM] | inhibition at 10 µM (17β-HSD1; [4]) [%] | inhibition at 10 µM (17β-HSD2; [5]) [%] | further results
21 | CC(C)NC(=O)c1[nH]nc2c1CC1C3CCc4cc(O)ccc4C3CC[C@]21C (stereo partly shown) [compound 857, 2-Hydroxy-6a-methyl-4b,5,6,6a,8,10,10a,10b,11,12-decahydro-7,8-diaza-pentaleno[2,1-a]phenanthrene-9-carboxylic acid isopropyl amide] | 57 | 0.3 |  |  |  | 
22 | C[C@]12CCC3c4ccc(O)cc4CCC3C1Cc1c2n[nH]c1C(=O)NCc1cccnc1 (stereo partly shown) [compound 860, 2-Hydroxy-6a-methyl-4b,5,6,6a,8,10,10a,10b,11,12-decahydro-7,8-diaza-pentaleno[2,1-a]phenanthrene-9-carboxylic acid (pyridin-3-ylmethyl)-amide] | 92 | 28 | 780 |  |  | 
23 | C[C@]12CCC3c4ccc(O)cc4CCC3C1Cc1c2n[nH]c1C(=O)NCC1CCCO1 (stereo partly shown) [compound 892] |  |  |  | 87 | -4 | 
24 | CNC(=O)c1[nH]nc2c1CC1C3CCc4cc(O)ccc4C3CC[C@]21C (stereo partly shown) [compound 893] |  |  |  | 62 | 14 | 
25 | CCN(C)C(=O)c1[nH]nc2c1CC1C3CCc4cc(O)ccc4C3CC[C@]21C (stereo partly shown) [compound 894] | 88 | 6 |  |  |  | 
26 | Cn1cccc1CNC(=O)c1[nH]nc2c1CC1C3CCc4cc(O)ccc4C3CC[C@]21C (stereo partly shown) [compound 895] |  |  | 2300 | 89 | -4 | 
27 | Cc1cnc(CNC(=O)c2[nH]nc3c2CC2C4CCc5cc(O)ccc5C4CC[C@]32C)cn1 (stereo partly shown) [compound 896] |  |  |  | 80 | 61 | 
28 | CN1CCN(C(=O)c2[nH]nc3c2CC2C4CCc5cc(O)ccc5C4CC[C@]32C)CC1 (stereo partly shown) [compound 897] |  |  |  | 50 | -0.7 | 
29 | C[C@]12CCC3c4ccc(O)cc4CCC3C1Cc1c2n[nH]c1C(=O)NCc1ccccn1 (stereo partly shown) [compound 915] |  |  | 880 | 93 | 9 | 
30 | C[C@]12CCC3c4ccc(O)cc4CCC3C1Cc1c2n[nH]c1C(=O)NCCc1cccnc1 (stereo partly shown) [compound 916] |  |  | 300 | 98.5 | 3 | 
31 | C[C@]12CCC3c4ccc(O)cc4CCC3C1Cc1cn(CCC#N)nc12 (stereo partly shown) [compound 921] | 95 | 44 | 730 |  |  | 
32 | CC1(C#N)CC2C3CCc4cc(O)ccc4C3CC[C@]2(C)C1=O (stereo partly shown) [compound 924] | 85 | 12 |  |  |  | 
33 | Cn1c2c(c(=O)n1C)CC1C3CCc4cc(O)ccc4C3CC[C@]21C (stereo partly shown) [compound 942] | 32 | 15 |  |  |  | 
34 | C[C@]12CCC3c4ccc(O)cc4CCC3C1C/C(=C(/O)C(F)(F)F)C2=O (stereo partly shown) [compound 946] |  |  |  | 69 | -1.5 | % inhibition of 17β-HSD1 @ 10 μM (17β-HSD1; 10 μM, T-47D cells, E1→E2): 87%
35 | C[C@]12CCC3c4ccc(O)cc4CCC3C1CC1C(C(F)(F)F)=NNC12O (stereo partly shown) [compound 947] | 83 | 2 |  |  |  | 
36 | CC(C)(C)/C=C1\CC2C3CCc4cc(O)ccc4C3CC[C@]2(C)[C@H]1O (stereo partly shown) [compound 948] | 84 | 27 |  |  |  | 
37 | C[C@]12CCC3c4ccc(O)cc4CCC3C1Cc1c2n[nH]c1C(F)(F)F (stereo partly shown) [compound 949] | 75 | 36 |  |  |  | 
38 | CCc1cc2c(cc1OS(N)(=O)=O)CCC1C2CC[C@]2(C)C(=O)C(CC(=O)NCc3cccnc3)CC12 (stereo partly shown) [compound 1039] |  | -4 | 5100 |  |  | 
39 | CCc1cc2c(cc1O)CCC1C2CC[C@]2(C)C(=O)C(CC(=O)NCc3cccnc3)CC12 (stereo partly shown) [compound 1040] |  | -5 |  |  |  | IC50 (17β-HSD1): 27 nM
40 | COc1cc2c(cc1O)CCC1C2CC[C@]2(C)C(=O)C(CC(=O)NCc3cccnc3)CC12 (stereo partly shown) [compound 1191] | 96 | 1.2 | 290 |  |  | 
